Row | melting point [°C] | Compound
1 | > 270 | CCCn1c(=O)c2c(nc(C=Cc3ccc(S(=O)(=O)O)cc3)n2C)n(CCC)c1=O
2 | 49 to 50 | CCC(O)(C#CC(=O)c1ccc(SC)cc1)CC
3 | 178 to 179 | COc1cccc([C@H]2O[C@H](CC(=O)Nc3cc4c(c(C(=O)O)c3)CCCC4)C(=O)N(CC(C)(C)CO)c3ccc(Cl)cc32)c1OC
4 | > 300 | CCOC(=O)Cc1c(C)nc(Nc2nc3cc(C)c(C)cc3[nH]2)nc1O
5 | 219 to 222 | O=c1[nH]c(C(F)(F)F)c(Br)c(=O)n1-c1c(Cl)cc(Cl)cc1Cl
6 | 300 | O=c1[nH]c(-c2ccccc2)c(-c2ccncc2)o1
7 | 200 to 203 | CCOC(=O)c1cn(Cc2cnsn2)c2c(F)c(F)c(F)cc2c1=O
8 | 77 to 78 | CCOC(=O)C(Oc1cccc2c1ccn2C(=O)OCc1ccccc1)C(=O)OCC
9 | 207 to 209 | Cc1ccc(C2NCCc3c2[nH]c2ccccc32)cc1 (configuration not stated)
10 | 249 | CNc1nc(Nc2ccc(Cl)cc2F)ncc1N1CCNC1=O
11 | 245 to 246 | CC(=O)O[C@H]1[C@H](N2CCCNC2=NC#N)c2cc(C#N)ccc2OC1(C)C (relative stereo)
12 | 160 to 161 | CC(C)Cc1nc2c(N)nc3c(c2n1CC(C)C)CCCC3
13 | 188 | CCOc1nc(N)nc(-c2ccccc2)c1-c1ccc(=O)n(C(C)C)n1
14 | 120 | O=c1[nH]c2ccccc2n1C/C=C/CCl
15 | 161 to 166 | Cc1cccc2sc(NN)nc12
16 | 199 to 201 | O=C(c1cccs1)c1cnn2c(-c3cccc([N+](=O)[O-])c3)ccnc12
17 | 230 to 240 | O=Cc1ccc(OC2CCCC2)c2oc3ccc([N+](=O)[O-])cc3c12
18 | 121 to 124 | CNc1c(C/C=C(\C)CCC(=O)O)c(OC)c(C)c2c1C(=O)OC2
19 | 102 | COc1ccc(C(C#N)N(C)C(=O)C(Cl)Cl)cc1OC (configuration not stated)
20 | 100 to 102 | CCOC(=O)c1sc2ncccc2c1Br
21 | 96 to 98 | COc1ccc(CS[C@H]2C[C@@H](C(=O)O)N(C(=O)OCc3ccc([N+](=O)[O-])cc3)C2)cc1
22 | 174 to 176 | CN(C)c1ccc(-c2cccc3c2C2(COc4cc5c(cc42)OCO5)C(=O)N3Cc2ccc(C(F)(F)F)o2)cn1 (configuration not stated)
23 | 207 | Cn1c(=O)c2c(Br)cccc2n2cnc(-c3noc(C4CC4)n3)c12
24 | 164 to 167 | O=C1C2CCCC2=Nc2ccccc2N1Cc1ccc2ccccc2c1 (configuration not stated)

Row | melting point [°C] | Compound
25 | 73 to 76 | CC(=Cc1ccsc1Cl)[N+](=O)[O-]
26 | 177 to 179 | CCOC(=O)c1ccc(-c2ccc(-c3ccc(O)cc3)c(-c3ccc4c(c3)C(C)(C)CCC4(C)C)c2)cc1
27 | 170 | O=C(/C=C/c1ccc(C(=O)Nc2cccc(Nc3nc(-c4cccnc4)cs3)c2)s1)NOC1CCCCO1 (configuration not stated)
28 | 142 to 143 | CC1(C)CCC(C)(C)c2cc(CC(=O)Oc3ccc(C(=O)O)cc3)ccc21
29 | 194 to 198 | CCOC(=O)c1cn(NCC=O)c2cc(-n3cccc3)c(F)cc2c1=O
30 | 121 to 122 | COc1cc(C(=O)NCCc2ccccc2)cc([N+](=O)[O-])c1OC
31 | 272 | Nc1ccc(Oc2c(NCc3ccccc3)cc(C(=O)O)cc2S(N)(=O)=O)cc1
32 | 113 to 114 | COC(=O)c1ccc(C#CC(=O)c2ccc3c(c2)C(C)(C)CCC3(C)C)cc1
33 | 146 to 148 | Cc1ccc(N2CCN(c3c(C)c(C)c4c(c3C)CC(C)(C)O4)CC2)cc1Cl
34 | 103 to 106 | COc1cc(CC(=O)NCCCOc2ccc(C)c(C)c2)ccc1OCCN
35 | 106 | O=c1ncc(Cl)cn1COCc1cnsn1
36 | 166 to 167 | CS(=O)(=O)c1ccc(-c2cnn(-c3ccc(F)cc3)c(=O)c2OCC2CC2)cc1
37 | 157 to 159 | COc1cc(-c2ccccc2)nc(SCC(=O)O)n1
38 | 115 to 118 | O=C(c1cccc2c1NCC2)N1CCN(c2cccc(C(F)(F)F)c2)CC1
39 | 246 to 247 | CCCN1C(=O)N2CCN=C2c2c1nc(C1CCCC1)n2C
40 | 203 to 204 | Cc1nc(-n2cccc(C(F)(F)F)c2=O)sc1C(=O)NCc1ccccc1
41 | 119 | CC(C)c1cccc(S(=O)(=O)n2c(CCCCC(=O)O)cc3cc(C(F)(F)F)ccc32)c1
42 | 250 to 253 | O=C(O)c1cn(Cc2ccccc2)c2cc(N3CCNCC3)c(F)cc2c1=O
43 | 232 to 237 | C(=C(c1ccccc1)c1ccccc1)c1ccc2c(c1)Sc1cc(C=C(c3ccccc3)c3ccccc3)ccc1N2c1ccccc1
44 | 134 to 135 | CCCCNc1nc(-c2ccc(F)cc2)c(-c2ccc(S(C)(=O)=O)cc2)s1
45 | 223 to 225 | COc1cc(OC)nc(Sc2c(NS(=O)(=O)CC#N)nc(C)n2C)n1
46 | 64 to 68 | Cc1cc(CC2SCNC2=O)cc(C(C)(C)C)c1O (configuration not stated)
47 | 144 | O=[N+]([O-])c1cccc(C=CC=Cc2ccccc2)c1
48 | 75 | CSc1nc(Cl)c(-c2c(F)cc(F)cc2F)c(Cl)n1

Row | melting point [°C] | Compound
49 | 127 | C[C@@H]1CN(CCNC(=S)N(C)C)CC[C@@H]1Nc1nc2ccccc2n1Cc1ccc(F)cc1 (relative stereo)
50 | 283 to 284 | Nc1ccccc1Sc1cccc2c1C(=O)c1cccc(Sc3ccccc3N)c1C2=O
51 | 95 | COC(=O)c1ccc(-c2ccc(-c3ccccc3)c(OS(=O)(=O)C(F)(F)F)c2)cc1
52 | 131 to 132 | COc1ccnc(CCC(=O)O)c1
53 | 113 to 115 | CCOC(=O)C=Cc1ccc2c(c1)CC(CNS(=O)(=O)c1ccc(Cl)cc1)C2 (configuration not stated)
54 | 188 | COC(=O)C1=C(C)Nc2nc(N3CCOCC3)nc(N3CCOCC3)c2C1c1cccc(Cl)c1Cl (configuration not stated)
55 | 138 to 143 | CN(C)Nc1cc(Cl)c(Cl)cc1[N+](=O)[O-]
56 | 126 to 127 | O=C(O)Cc1coc2cc(OCc3ccccc3OCc3ccc(C(F)(F)F)cc3)ccc12
57 | 260 to 285 | COCC1COc2cc3ncnc(Nc4ccc(F)c(Cl)c4)c3cc2O1 (configuration not stated)
58 | 108 | N#CCC[C@H]1CC[C@@H](c2ccc(F)cc2)N1S(=O)(=O)c1ccc(Cl)cc1 (racemic)
59 | 196 to 197 | CCS1(N2CCN(c3ccccc3OC)CC2)C(C)=C(C)c2c1[nH]c(=O)[nH]c2=O (configuration not stated)
60 | 115 to 117 | CON=C(C(C)=C(ON)c1ccccc1C(=NOC)C(=O)OC)c1ccc(Cl)cc1
61 | 51 | CC1(C)CCSc2ccc(Br)cc21
62 | 69 to 71 | COc1cc([N+](=O)[O-])ccc1F
63 | 177 to 188 | CC(C)(C)Nc1c([N+](=O)[O-])cc([N+](=O)[O-])c2nc(C(F)(F)F)[nH]c12
64 | 226 | COc1ccc(C2CCCCC2)cc1-c1csc(NC(=O)N2CCN(C3CCOCC3)CC2)n1
65 | 100 to 113 | CCSC1CCC(=O)N1S(=O)(=O)c1ccccc1 (configuration not stated)
66 | 52 to 53 | CCCCc1c(CO)ccc2ccc(OC)cc12
67 | 75 to 76 | COC(=O)CCN1C[C@H]2Cc3ccccc3[C@H](c3ccccc3)[C@H]2C1 (racemic)
68 | 144 | COc1ccc(C(O)(c2ccc3nc(Cl)nc(-c4cccc(Cl)c4)c3c2)c2cncn2C)cc1 (configuration not stated)
69 | 156 to 158 | CC(C)[C@H](NC(=O)[C@H](C)NC(=O)OCc1ccccc1)[C@@H](O)c1c(-c2ccccc2)c1=O
70 | 151 to 152 | CCOc1ccc(S(=O)(=O)N[C@H](CCCN2C(=O)c3ccccc3C2=O)C(=O)O)cc1
71 | 140 to 142 | COc1ccc(C2CCN(c3c(C)c(C)c4c(c3C)C(O)C(C)(C)O4)CC2)cc1OC (configuration not stated)
72 | 94 to 96 | CCCCCCOc1ccc(CCCCCCCCC(=O)NO)cc1

Row | melting point [°C] | Compound
73 | 136 to 137 | CCS(=O)(=O)N(C)C1c2cc(Cl)cc(Cl)c2OC(C)(C)C1OC(C)=O (configuration not stated)
74 | 259 to 260 | O=C(NC1CCN(CCCOc2ccccc2C(=O)Nc2nnn[nH]2)CC1)c1ccccc1
75 | 145 to 149 | CON=C1c2c(Cl)cc(Cl)c(-n3c(=O)cc(C(F)(F)F)n(C)c3=O)c2OC1(C)C
76 | 118 | CCOC(=O)Cc1nn(Cc2nc3ccccc3n2C)c(=O)c2ccccc12
77 | 155 to 157 | CCOC(=O)c1c(OC)c2ccccc2c2nc3ccccc3nc12
78 | 76.7 | COC(=O)c1cc(C=O)ccc1[N+](=O)[O-]
79 | 269 to 271 | COc1cc(Nc2nccc(-c3sc(N)nc3C)n2)cc(OC)c1
80 | 256 to 258 | CN1CC(=O)Nc2ccc(C#N)cc2C1=O
81 | 305 | CS(=O)(=O)c1cccc(NC(=O)c2cnn3c(C(F)(F)F)cc(-c4ccc(Cl)cc4)nc23)c1
82 | 111 to 113 | CN=C(N)Nc1nc(-c2cccc(C(=O)NC)c2)cs1
83 | 171 to 173 | CCCC(=O)Nc1cccc2c1C(=O)N(C1CCC(=O)NC1=O)C2=O (configuration not stated)
84 | 163 to 165 | CCCc1ccccc1OCCCOc1ccc2c(c1CCC)OC(CCC(=O)O)(CCC(=O)O)CC2=O
85 | 84 to 85 | CC(CBr)=C(C(=O)OCc1ccccc1)N1C(=O)C(Br)(Br)C1Br (configuration not stated)
86 | 157 to 158 | CCCC(CCC)n1nnc2c(Nc3c(Cl)cc(OC)cc3OC)nc(C)cc21
87 | 190 to 195 | CC1=Nc2cc3c(cc2C1(C)C)N=C(C)C3(C)C
88 | 43 to 45 | COCCOCCOCCOc1cc([N+](=O)[O-])c([N+](=O)[O-])cc1OCCOCCOCCOC
89 | 239 | O=c1[nH]c(C2CC2)nc2c1cnn2-c1ncc(C(F)(F)F)cc1Cl
90 | 162 | Cc1c(C)c(C=O)c2ncccc2c1C
91 | 154 | COc1ccncc1-c1cncc(OC2SCC(O)C(O)C2O)c1 (configuration not stated)
92 | 139 | CC(O)Cn1cnc2c1c(=O)n(CC1CCCC1)c(=O)n2CC1CCCC1 (configuration not stated)
93 | 190 to 193 | O=c1[nH]ncc2cc(CCc3ccccc3)ccc12
94 | 194 to 196 | COc1cc(C=Cc2ccc(=O)[nH]n2)cc(OC)c1OC

Row | Compound | melting point [°C]
95 | CC1(C)N=C(c2ccccc2Cl)c2cc([N+](=O)[O-])ccc2NC1=O | 125 to 127
96 | CCCN(CCC)C1Cc2c(C(C)=O)ccc3c2C(CN3)C1 (single isomer, unassigned; (+)) | 76 to 77
97 | CN1Cc2c(C(=O)OC(C)(C)C)ncn2-c2ccccc2C1=S | 207 to 208

Reference: a melting point compilation (Tetko et al.; mined from patent text by program, amines drawn as free bases though some values may be those of a salt)
